Test systems include HCC 2998; CCRF-CEM; SK-MEL-2; SNB-19; UACC-257; UO-31; Malme-3M; A549; SK-MEL-28; IGROV-1; OVCAR-4; COLO 205; NCI-H23; SF-268; UACC-62; OVCAR-3; HCT-15; HCT-116; OVCAR-5; OVCAR-8.
Assay in all cases: NCI anticancer screen, dose series, 48 h

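1) Cells in 96-well plates. 2) Compound, 48 h, 5 concentrations. 3) Linear interpolation between surrounding doses. 4) Unreached endpoint = highest concentration. GI50: concentration for 50% inhibition of growth.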 Active and inactive are the calls of the source. No stated cut-off is given here; in the data, active = GI50 up to about 1.1 µM and inactive = higher.

Regarding `CC(=O)NC(Cc1ccsc1)C(=O)O` (stereo not given), the GI50 in the assay with HCC 2998, in the assay with CCRF-CEM, with SK-MEL-2, with SNB-19, in the assay with UACC-257 and in the assay on UO-31 was > 100 µM (inactive) in each case. The GI50 in the assay on Malme-3M, with A549, in the assay on SK-MEL-28, in the assay with IGROV-1, in the assay with OVCAR-4 and in the assay on COLO 205 was > 100 µM (inactive) throughout. Also, the GI50 in the assay with NCI-H23 was > 100 µM (inactive); with SF-268 it was > 100 µM (inactive); in the assay with UACC-62, > 100 µM (inactive); with OVCAR-3 it was > 100 µM (inactive); with HCT-15, greater than 100 µM; with HCT-116 it was > 100 µM (inactive). The GI50 in the assay on OVCAR-5 and in the assay on OVCAR-8 was > 100 µM (inactive) throughout.
